Like-named read-outs stand apart in the source and are kept apart here.
Tests used:
Type in all cases: in vivo, cynomolgus monkey
male cynomolgus monkeys [1] = system: male cynomolgus monkeys
male cynomolgus monkeys [2] = experiment: Insulin secretion promoting and blood glucose lowering effects after intravenous glucose
Procedure: Next, a 50% glucose solution (glucose administration weight to the monkey: 0.5 g/kg) was intravenously administered and a blood sample was collected every 5 min or 10 min to measure the plasma insulin and glucose concentrations. The area under the curve was calculated from the time course of each parameter after the drug administration to evaluate the insulin secretion promoting effect and the blood glucose lowering effect.

[3] = Pharmacokinetics after oral administration; conditions: for Cmax / Tmax / AUC(0-t): male, cynomolgus monkey, plasma, calcium salt hydrate crystal (Sample 162a) suspension, n=2; for AUC(0-t): read-out: AUC0-24 h
Procedure: The plasma concentrations of the drug were determined by liquid chromatography tandem-mass spectrometry. The lower limit of quantification was 0.3 ng/mL.

[4] = continuous i.v. 40 min, steady-state plasma concentration 0.94 to 4.8 nmol/L, then i.v. glucose 0.5 g/kg, vs vehicle

time after oral administration at which plasma concentrations reached Cmax ([3]; all dosages (0.05, 0.15, 0.45 and 1.35 mg/kg), oral): 2 h
Cmax ([3]; 0.05 mg/kg oral): 4.78 ng/mL
Tmax ([3]; 0.05 mg/kg oral): 2 h
AUC(0-t) ([3]; 0.05 mg/kg oral): 23.7 ng·h/mL
Cmax ([3]; 0.15 mg/kg oral): 20.7 ng/mL
Tmax ([3]; 0.15 mg/kg oral): 2 h
AUC(0-t) ([3]; 0.15 mg/kg oral): 135 ng·h/mL
Cmax ([3]; 0.45 mg/kg oral): 32 ng/mL
Tmax ([3]; 0.45 mg/kg oral): 2 h
AUC(0-t) ([3]; 0.45 mg/kg oral): 208 ng·h/mL
Cmax ([3]; 1.35 mg/kg oral): 148 ng/mL
Tmax ([3]; 1.35 mg/kg oral): 2 h
AUC(0-t) ([3]; 1.35 mg/kg oral): 1040 ng·h/mL
SMILES: Cc1cc(-n2nc3c(c2-n2ccn(-c4ccc5c(cnn5C)c4F)c2=O)[C@H](C)N(C(=O)c2cc4cc([C@H]5CCOC(C)(C)C5)ccc4n2[C@@]2(c4noc(=O)[nH]4)C[C@@H]2C)CC3)cc(C)c1F [Example Compound 67, 3-[(1S,2S)-1-[5-[(4S)-2,2-dimethyloxan-4-yl]-2-[(4S)-2-(4-fluoro-3,5-dimethylphenyl)-3-[3-(4-fluoro-1-methylindazol-5-yl)-2-oxoimidazol-1-yl]-4-methyl-6,7-dihydro-4H-pyrazolo[4,3-c]pyridine-5-carbonyl]indol-1-yl]-2-methylcyclopropyl]-4H-1,2,4-oxadiazol-5-one]
degree of suppression of food intake compared with control drug (male cynomolgus monkeys [1]; oral 0.05 or 0.1 mg/kg vs exenatide s.c. 0.3 or 0.6 μg/kg): almost equivalent to the control drug exenatide
food intake (male cynomolgus monkeys [1]; oral, 5 consecutive days, 0.05 or 0.1 mg/kg, food intake for 90 min from 3 h after administration): suppressed the food intake in a dosage dependent manner
area under the curve of insulin (male cynomolgus monkeys [2]; [4]): increase in the area under the curve of insulin
area under the curve of plasma glucose (male cynomolgus monkeys [2]; [4]): decrease in the area under the curve of plasma glucose
plasma concentration at which insulin secretion promoting and blood glucose lowering effects are equivalent to exenatide (male cynomolgus monkeys [2]; steady-state plasma concentration, i.v. infusion): ≥ 1.6 nmol/L
absorption in the intestinal tract and elimination ([3]; oral 0.05 to 1.35 mg/kg): dose-proportionally absorbed in the intestinal tract and eliminated

From US10858356B2, “Pyrazolopyridine derivative having GLP-1 receptor agonist effect” (Chugai Seiyaku Kabushiki Kaisha, priority 2016, dated 2020)
